According to paper PMC8486872, “A rational blueprint for the design of chemically-controlled protein switches” (Nature Communications, 2021):
“And” between values parts separate entries of the source, which are not always exact repeats. Equal values may be shown once.

System: SEAP and Luciferase expression in HEK293T cells
Assay: SIMO designer cells (AIR-1/2-GEMS + CDH-1/2-TF)
Assay type: cell-based
Set-up: Bottom (best-fit value) / Top (best-fit value) / Span (best-fit value): unit not given here
Text: Fig. 5 Orthogonal chemical switches enable implementation of multi-input multi-output control modes in mammalian cells. a Scheme of multi-inputs multi-outputs (MIMO) designer cells where two drugs control two different outputs. b, c Cells were co-transfected with AIR-1/2-GEMS and CDH-3-TF regulate SEAP and Luciferase expression, respectively. […] AIR-1/2-GEMS coupled with SEAP expression circuits were co-transfected with CDH-1/2-TF circuits which control the Luciferase production. Respective drug concentrations ranged from 0.001 nM to 1 µM. All values presented are mean ± s.d. of three replicates and curves were fitted by four-parameters nonlinear regression. b, c, e, f, h, i Source data are available in the source data file.
Finally, we engineered SIMO cells (Fig. 5g) using two designed switches that produce ON and OFF responses upon exposure to the same drug. We transfected cells with combinations of AIR-GEMS and CDH-TFs which controlled the expression of the reporter proteins SEAP and Luciferase, respectively. […] Therefore, computational design expanded the repertoire of protein switches controlled by the same compounds that can be used to simultaneous turn ON and OFF synergistic outputs. […]
AIR-1-GEMS coupled with SEAP expression circuits (i) and CDH-1-TF circuits which control the Luciferase production (j). j-k) Quantification of SEAP and Luciferase activities under Drug-2. AIR-2-GEMS coupled with SEAP expression circuits (k) and CDH-2-TF circuits which control the Luciferase production (l). b-k) Each data point represents the mean of n = 3 biological replicates, and the dose-dependent curve were fitted using four-parameter nonlinear regression.

[1] = Fig S13j, AIR-2-GEMS control SEAP expression only, Drug-2 3.16 nM
[2] = Fig S13j, AIR-2-GEMS control SEAP expression only, Drug-2 10 nM
[3] = Fig S13j, AIR-2-GEMS control SEAP expression only, Drug-2 100 nM
[4] = Fig S13j, AIR-2-GEMS control SEAP expression only, Drug-2 316 nM
[5] = Fig S13j, AIR-2-GEMS control SEAP expression only, Drug-2 1000 nM
[6] = sheet Figure5i, SEAP, four-parameter fit

CC1(C)CCC(CN2CCN(c3ccc(C(=O)NS(=O)(=O)c4ccc(NCC5CCOCC5)c([N+](=O)[O-])c4)c(Oc4cnc5[nH]ccc5c4)c3)CC2)=C(c2ccc(Cl)cc2)C1 [Drug-2, Venetoclax]
SEAP and Luciferase outputs in SIMO cells (0.001 nM to 1 µM): simultaneously activated SEAP production and suppressed the expression of Luciferase | SEAP (Fig5i, turn ON (title: via AIR-1-GEMS), 0.001 nM): 11.0539 U/L and 12.4374 U/L and 11.7528 U/L | SEAP (Fig5i, turn ON (title: via AIR-1-GEMS), 0.005 nM): 14.3953 U/L and 10.7601 U/L and 8.34 U/L | SEAP (Fig5i, turn ON (title: via AIR-1-GEMS), 0.05 nM): 12.0377 U/L and 10.3343 U/L and 7.481 U/L | SEAP (Fig5i, turn ON (title: via AIR-1-GEMS), 0.5 nM): 13.1482 U/L and 9.328 U/L and 7.802 U/L | SEAP (Fig5i, turn ON (title: via AIR-1-GEMS), 1 nM): 16.8267 U/L and 13.7148 U/L and 13.9654 U/L | SEAP (Fig5i, turn ON (title: via AIR-1-GEMS), 5 nM): 12.4083 U/L and 18.0777 U/L and 19.7017 U/L | SEAP (Fig5i, turn ON (title: via AIR-1-GEMS), 10 nM): 32.3034 U/L and 32.696 U/L and 36.5671 U/L | SEAP (Fig5i, turn ON (title: via AIR-1-GEMS), 50 nM): 48.8555 U/L | SEAP (Fig5i, turn ON (title: via AIR-1-GEMS), 100 nM): 61.1746 U/L and 72.5404 U/L | SEAP (Fig5i, turn ON (title: via AIR-1-GEMS), 500 nM): 94.0018 U/L and 86.0577 U/L | SEAP (Fig5i, turn ON (title: via AIR-1-GEMS), 1000 nM): 105.374 U/L and 86.4725 U/L | SEAP (Fig S13j, AIR-2-GEMS control SEAP expression only, Drug-2 0.01 nM): 269 U/L and 225 U/L and 167 U/L | SEAP (Fig S13j, AIR-2-GEMS control SEAP expression only, Drug-2 1 nM): 225 U/L and 173 U/L and 167 U/L | Luciferase [1]: 18.3864 RLU and 14.0122 RLU and 11.0547 RLU | SEAP [1]: 199 U/L and 215 U/L and 123 U/L | Luciferase [2]: 59.3143 RLU and 64.1927 RLU and 53.9121 RLU | SEAP [2]: 143 U/L and 145 U/L and 125 U/L | SEAP (Fig S13j, AIR-2-GEMS control SEAP expression only, Drug-2 31.6 nM): 149 U/L and 123 U/L | Luciferase [3]: 277.707 RLU and 262.611 RLU and 223.323 RLU | SEAP [3]: 157 U/L and 127 U/L and 107 U/L | Luciferase [4]: 280.311 RLU and 280.175 RLU and 202.801 RLU | SEAP [4]: 177 U/L and 117 U/L and 123 U/L | Luciferase [5]: 203.844 RLU and 222.434 RLU and 194.549 RLU | SEAP [5]: 191 U/L and 169 U/L and 179 U/L | SEAP (Fig S13k, CDH-2-TF control Luciferase expression only, Drug-2 0.01 nM): 77283 U/L and 94282 U/L and 94549 U/L | SEAP (Fig S13k, CDH-2-TF control Luciferase expression only, Drug-2 0.1 nM): 83949 U/L and 102019 U/L and 91551 U/L | SEAP (Fig S13k, CDH-2-TF control Luciferase expression only, Drug-2 1 nM): 97527 U/L and 93132 U/L and 98408 U/L | SEAP (Fig S13k, CDH-2-TF control Luciferase expression only, Drug-2 3.16 nM): 96858 U/L and 87221 U/L and 87443 U/L | SEAP (Fig S13k, CDH-2-TF control Luciferase expression only, Drug-2 10 nM): 78643 U/L and 87229 U/L and 90599 U/L | SEAP (Fig S13k, CDH-2-TF control Luciferase expression only, Drug-2 31.6 nM): 80585 U/L and 86321 U/L and 73406 U/L | SEAP (Fig S13k, CDH-2-TF control Luciferase expression only, Drug-2 100 nM): 64234 U/L and 74136 U/L and 75517 U/L | SEAP (Fig S13k, CDH-2-TF control Luciferase expression only, Drug-2 316 nM): 47807 U/L and 51555 U/L and 52806 U/L | SEAP (Fig S13k, CDH-2-TF control Luciferase expression only, Drug-2 1000 nM): 34743 U/L and 30667 U/L and 26001 U/L | IC50 (Homo sapiens, HEK-293T, sheet Figure5i, SEAP column (turn ON), four-parameter fit, given as IC50, read-out: IC50 (best-fit value)): 5.24 nM | Bottom (best-fit value) [6]: 28.34 | HillSlope (best-fit value) [6]: 1.403 | Span (best-fit value) [6]: 390.7 | Top (best-fit value) [6]: 419 | logIC50 (best-fit value) (sheet Figure5i, SEAP, four-parameter fit, drug in nM): 0.7193
